# Measurements as given in patent US11478460B2, “Diaryl substituted 6,5-fused ring compounds as C5aR inhibitors” (CHEMOCENTRYX, INC., priority 2017, dated 2022).
# Target: C5aR (Homo sapiens (Human), UniProt P21730)
# Experiment: Chemotaxis assay using U937 cells (C5aR mediated migration)
# Type: cell-based
# Conditions: read-out: Mig IC50
# Procedure, shortened: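 Migration toward 0.03 nM C5a, mixed with varying compound in the lower chamber (HBSS with 1% FBS), was measured over 1.5 h at 37° C through 5 μm filters. Upper chamber held 100,000 U937 cells treated overnight with 0.5 mM cAMP; migrated cells quantified by counts or CyQuant for IC50, SDF-1α as specificity control.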
# Chain of C5aR (P21730 whole entry): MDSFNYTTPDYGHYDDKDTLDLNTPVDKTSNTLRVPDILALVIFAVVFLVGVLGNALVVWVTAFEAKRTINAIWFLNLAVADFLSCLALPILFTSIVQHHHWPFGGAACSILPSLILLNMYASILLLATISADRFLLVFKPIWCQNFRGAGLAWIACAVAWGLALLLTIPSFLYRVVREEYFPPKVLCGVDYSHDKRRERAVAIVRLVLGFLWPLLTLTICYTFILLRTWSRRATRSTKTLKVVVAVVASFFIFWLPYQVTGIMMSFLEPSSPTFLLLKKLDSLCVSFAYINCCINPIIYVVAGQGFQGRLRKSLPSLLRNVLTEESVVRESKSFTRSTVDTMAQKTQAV
row,Structure (SMILES),IC50
1,CCc1cccc(CC)c1-n1nc2c(c1-c1ccc(NC(N)=O)cc1)CN(Cc1c(C)cccc1C)CC2 [Example 1.290],5 to 50 nM
2,NC(=O)Nc1cc(F)c(-c2c3c(nn2-c2c(Cl)cccc2Cl)CCN(c2ncc(Cl)cc2Cl)C3)cc1F [Example 1.187],5 to 50 nM
3,Cc1cccc(OCC(C)C)c1-n1nc2c(c1-c1ccc(NC(N)=O)cc1)CN(C(=O)Cc1ccccc1)CC2 [Example 1.430],> 500 nM
4,Cc1cccc(C)c1-n1nc2c(c1-c1cc(F)c(NC(N)=O)cc1F)CN(c1ncc(Cl)cc1C(N)=O)CC2 [Example 1.101],> 500 nM
5,Cc1cccc(OC(C)C)c1-n1nc2c(c1-c1ccc(N)cc1)CN(c1ccccc1C(C)C)CC2 [Example 1.465],5 to 50 nM
6,CCc1cccc(CC)c1-n1nc2c(c1-c1cc(F)c(NC(N)=O)cc1F)CN(Cc1ccccc1C(F)(F)F)CC2 [Example 1.067],≤ 5 nM
7,Cc1ccnc(C)c1-n1nc2c(c1-c1cc(F)c(NC(N)=O)cc1F)CN(C(C)(C)c1ccccc1)CC2 [Example 1.133],50 to 500 nM
8,Cc1cccc(OCC(C)C)c1-n1nc2c(c1-c1ccc(NC(N)=O)cc1)CN(C(=O)c1ccccc1C(C)C)CC2 [Example 1.434],50 to 500 nM
9,CCc1cccc(CC)c1-n1nc2c(c1-c1cc(F)c(NC(N)=O)cc1F)CN(C(CO)c1ccccc1)CC2 (centres unmarked) [Example 1.079],5 to 50 nM
10,CCc1cccc(CC)c1-n1nc2c(c1-c1cc(F)c(NC(N)=O)cc1F)CN(C(C)(C)c1ccccc1)CC2 [Example 1.200],≤ 5 nM
11,CCc1cccc(CC)c1-n1nc2c(c1-c1cc(F)c(NC(C)=O)cc1F)CN(Cc1ccc(C(F)(F)F)cc1C(F)(F)F)CC2 [Example 1.006],5 to 50 nM
12,CCNc1ccc(-c2c3c(nn2-c2c(C)cccc2OC)CCN(c2ccccc2C(C)C)C3)cc1 [Example 1.476],5 to 50 nM
13,Cc1cccc(F)c1-n1nc2c(c1-c1ccc(NC(N)=O)cc1)CN(c1ccccc1C(C)C)CC2 [Example 1.461],50 to 500 nM
14,Cc1cccc(C)c1-n1nc2c(c1-c1cc(F)c(NC(N)=O)cc1F)CN(c1ccc(C3CC3)cc1Cl)CC2 [Example 1.093],≤ 5 nM
15,CCc1cccc(CC)c1-n1nc2c(c1-c1cc(F)c(NC(=O)CO)cc1F)CN(Cc1ccc(C(F)(F)F)cc1C(F)(F)F)CC2 [Example 1.002],50 to 500 nM
16,CCc1cccc(CC)c1-n1nc2c(c1-c1cc(F)c(NC(N)=O)cc1F)CN(C(C)(C)c1cccc(F)c1)CC2 [Example 1.195],≤ 5 nM

row,Structure (SMILES),IC50
1,CCc1cccc(CC)c1-n1nc2c(c1-c1cc(F)c(NC(N)=O)cc1F)CN(Cc1cnn(CC)c1)CC2 [Example 1.072],50 to 500 nM
2,Cc1cc(NC(N)=O)ccc1-c1c2c(nn1-c1c(C)cccc1C)CCN(c1ccccc1C(C)C)C2 [Example 1.463],≤ 5 nM
3,CCc1cccc(CC)c1-n1nc2c(c1-c1ccc(NC(N)=O)c(F)c1)CN(Cc1ccccc1C(F)(F)F)CC2 [Example 1.244],≤ 5 nM
4,CCc1cccc(CC)c1-n1nc2c(c1-c1cc(F)c(NC(N)=O)cc1F)CN(Cc1cc(OC)ccc1C(F)(F)F)CC2 [Example 1.045],≤ 5 nM
5,CCc1cccc(CC)c1-n1nc2c(c1-c1cc(F)c(NC(N)=O)cc1F)CN(C(C)(C)c1cccc(C(F)(F)F)c1)CC2 [Example 1.163],≤ 5 nM
6,CCc1cccc(CC)c1-n1nc2c(c1-c1cc(F)c(NC(N)=O)cc1F)CN(C(C)(C)CC)CC2 [Example 1.212],≤ 5 nM
7,CCc1cccc(CC)c1-n1nc2c(c1-c1cc(F)c(NC(N)=O)cc1F)CN(Cc1ccc(C)cc1C)CC2 [Example 1.063],≤ 5 nM
8,CC(C)(c1ccccc1)N1CCc2nn(-c3ccccc3OCC(F)(F)F)c(-c3cc(F)c(NC(N)=O)cc3F)c2C1 [Example 1.136],≤ 5 nM
9,Cc1cccc(OC(C)C)c1-n1nc2c(c1-c1ccc(NC(N)=O)cc1)CN(c1ccccc1C(C)C)CC2 [Example 1.460],≤ 5 nM
10,Cc1cccc(OCC(C)C)c1-n1nc2c(c1-c1ccc(NC(N)=O)cc1)CN(Cc1ccccc1C(C)C)CC2 [Example 1.390],5 to 50 nM
11,CCc1cccc(CC)c1-n1nc2c(c1-c1cc(F)c(NC(N)=O)cc1F)CN(C(C)(C)c1ccccc1OC)CC2 [Example 1.149],≤ 5 nM
12,CCc1cccc(CC)c1-n1nc2c(c1-c1cc(F)c(NC(N)=O)cc1F)CN(Cc1ccc(C(F)(F)F)cc1)C(C)(C)C2 [Example 1.017],≤ 5 nM
13,Cc1cccc(OCC(C)C)c1-n1nc2c(c1-c1ccc(NC(N)=O)cc1)CN(CC1CCCC1)CC2 [Example 1.404],5 to 50 nM
14,Cc1cccc(C)c1-n1nc2c(c1-c1cc(F)c(NC(N)=O)cc1F)CN(c1ccc(Cl)cc1)CC2 [Example 1.095],≤ 5 nM
15,Cc1cccc(C(C)C)c1-n1nc2c(c1-c1ccc(NC(N)=O)cc1)CN(C(=O)OC(C)(C)C)CC2 [Example 1.428],50 to 500 nM
16,CCc1cccc(CC)c1-n1nc2c(c1-c1cc(F)c(NC(N)=O)cc1F)CN(Cc1cc(C(F)(F)F)ccc1Cl)CC2 [Example 1.038],≤ 5 nM

# Second part, the compound after the results:
row,IC50,Structure (SMILES)
1,≤ 5 nM,Cc1cc(NC(N)=O)c(F)cc1-c1c2c(nn1-c1c(C)cccc1OCC(C)C)CCN(c1ncc(C(F)(F)F)cc1F)C2 [Example 1.211]
2,≤ 5 nM,Cc1cccc(OCC(C)C)c1-n1nc2c(c1-c1ccc(NC(N)=O)cc1)CN(Cc1cc(F)ccc1Cl)CC2 [Example 1.320]
3,≤ 5 nM,Cc1cccc(F)c1-n1nc2c(c1-c1cc(F)c(NC(N)=O)cc1F)CN(c1ncc(Cl)cc1Cl)CC2 [Example 1.176]
4,≤ 5 nM,Cc1cccc(OCC(C)C)c1-n1nc2c(c1-c1ccc(NC(N)=O)cc1)CN(Cc1ccc(C(F)(F)F)cc1C(F)(F)F)CC2 [Example 1.357]
5,≤ 5 nM,Cc1cccc(OCC(C)C)c1-n1nc2c(c1-c1ccc(NC(N)=O)cc1)CN(C(C)c1ccc(C(F)(F)F)cc1)CC2 (centres unmarked) [Example 1.306]
6,≤ 5 nM,Cc1cccc(OCC(C)C)c1-n1nc2c(c1-c1ccc(NC(N)=O)cc1)CN(Cc1c(F)cccc1C(F)(F)F)CC2 [Example 1.351]
7,5 to 50 nM,Cc1cccc(C)c1-n1nc2c(c1-c1cc(F)c(NC(N)=O)cc1F)CN(c1ncc(C(C)C)cn1)CC2 [Example 1.153]
8,5 to 50 nM,Cc1ccc(F)cc1N1CCc2nn(-c3c(C)cccc3OCC(C)C)c(-c3ccc(NC(N)=O)cc3)c2C1 [Example 1.423]
9,≤ 5 nM,CCC(c1ccccc1)N1CCc2nn(-c3c(C)cccc3OCC(C)C)c(-c3cc(F)c(NC(N)=O)cc3F)c2C1 (centres unmarked) [Example 1.145]
10,5 to 50 nM,Cc1ccc(C(C)(C)C)cc1N1CCc2nn(-c3c(C)cccc3OCC(C)C)c(-c3ccc(N)cc3)c2C1 [Example 1.458]
11,≤ 5 nM,Cc1cc(NC(N)=O)ccc1-c1c2c(nn1-c1c(C)cccc1OCC(C)C)CCN(c1cc(C(C)(C)C)ccc1C)C2 [Example 1.441]
12,5 to 50 nM,Cc1cccc(OCC(C)C)c1-n1nc2c(c1-c1ccc(NC(N)=O)cc1)CN(c1ccc(C(C)(C)C)cn1)CC2 [Example 1.370]
13,≤ 5 nM,Cc1cccc(OCC(C)C)c1-n1nc2c(c1-c1ccc(NC(N)=O)cc1)CN(Cc1cc(Cl)ccc1Cl)CC2 [Example 1.324]
14,≤ 5 nM,Cc1cccc(OCC(C)C)c1-n1nc2c(c1-c1ccc(NC(N)=O)c(F)c1)CN(CC(C)(C)C)CC2 [Example 1.274]
15,5 to 50 nM,COc1cc(CN2CCc3nn(-c4c(C)cccc4OCC(C)C)c(-c4ccc(NC(N)=O)cc4)c3C2)c(F)cc1Cl [Example 1.305]
16,> 500 nM,Cc1cccc(OCC(C)C)c1-n1nc2c(c1-c1ccc(NC(N)=O)cc1)CN(C(=O)NC(C)(C)C)CC2 [Example 1.437]
17,≤ 5 nM,Cc1cccc(C)c1-n1nc2c(c1-c1cc(F)c(O)cc1F)CN(c1ncc(Cl)cc1Cl)CC2 [Example 1.112]

row,IC50,Structure (SMILES)
1,≤ 5 nM,Cc1cccc(OCC(C)C)c1-n1nc2c(c1-c1ccc(NC(N)=O)c(F)c1)CN(C(C)C1CCCC1)CC2 (centres unmarked) [Example 1.254]
2,≤ 5 nM,Cc1cccc(OCC(C)C)c1-n1nc2c(c1-c1ccc(NC(N)=O)cc1F)CN(c1ncc(C(F)(F)F)cc1F)CC2 [Example 1.270]
3,≤ 5 nM,Cc1cccc(OCC(C)C)c1-n1nc2c(c1-c1cc(F)c(NC(N)=O)cc1F)CN(C(c1ccccc1)C(F)(F)F)CC2 (centres unmarked) [Example 1.196]
4,≤ 5 nM,Cc1cccc(C)c1-n1nc2c(c1-c1cc(F)c(NC(N)=O)cc1F)CN(c1ncc(Cl)cc1F)CC2 [Example 1.132]
5,5 to 50 nM,Cc1cccc(OCC(C)C)c1-n1nc2c(c1-c1ccc(NC(N)=O)cc1)CN(Cc1c(Cl)cccc1Cl)CC2 [Example 1.367]
6,50 to 500 nM,Cc1cccc(OCC(C)C)c1-n1nc2c(c1-c1ccc(NC(N)=O)cc1)CN(C(=O)C1CCC1)CC2 [Example 1.426]
7,≤ 5 nM,Cc1cccc(C)c1-n1nc2c(c1-c1cc(F)c(NC(N)=O)cc1F)CN(c1ccc(F)cc1Cl)CC2 [Example 1.106]
8,≤ 5 nM,Cc1cccc(OCC(C)C)c1-n1nc2c(c1-c1cc(F)c(NC(N)=O)cc1F)CN(c1ncc(F)cc1Cl)CC2 [Example 1.169]
9,≤ 5 nM,COc1cc(NC(N)=O)c(F)cc1-c1c2c(nn1-c1c(C)cccc1C)CCN(c1ccc(C(F)(F)F)cc1F)C2 [Example 1.111]
10,≤ 5 nM,COc1cc(NC(N)=O)c(F)cc1-c1c2c(nn1-c1c(C)cccc1OCC(C)C)CCN(c1ncc(C(C)C)cc1F)C2 [Example 1.130]
11,> 500 nM,Cc1cccc(C)c1-n1nc2c(c1-c1ccc(C(N)=O)c(F)c1)CN(c1ncc(Cl)cc1Cl)CC2 [Example 1.110]
12,5 to 50 nM,Cc1cccc(OCC(C)C)c1-n1nc2c(c1-c1ccc(N)c(F)c1)CN(c1ncc(C(F)(F)F)cc1F)CC2 [Example 1.294]
13,≤ 5 nM,Cc1cc(Cl)cnc1N1CCc2nn(-c3c(C)cccc3OCC(C)C)c(-c3cc(F)c(NC(N)=O)cc3F)c2C1 [Example 1.168]
14,≤ 5 nM,Cc1cccc(OCC(C)C)c1-n1nc2c(c1-c1ccc(NC(N)=O)cc1)CN(Cc1ccc(Cl)cc1Cl)CC2 [Example 1.328]
15,≤ 5 nM,Cc1cccc(OCC(C)C)c1-n1nc2c(c1-c1ccc(NC(N)=O)cc1)CN(c1cc(C(C)(C)C)ccc1F)CC2 [Example 1.421]
16,50 to 500 nM,Cc1cccc(C)c1-n1nc2c(c1-c1cc(F)c(NC(=O)CO)cc1F)CN(c1ncc(Cl)cc1Cl)CC2 [Example 1.125]
